Each compound was assayed against T1, plant Photosystem II (PSII), D1 protein QB site, pea (Lathyrus oleraceus, UniProt P06585) (assay: DPIP photoreduction (Hill reaction, […] nm) in isolated thylakoid membranes, Langmuir isotherm fit). Conditions: pH 7.2, 100 µM DPIP, 5 mM NH4Cl, 5 mM MgCl2, 15 µg/mL Chl, white light 500 µmol photons m^-2 s^-1, 10 min dark preincubation at room temperature, competitive with plastoquinone, read-out: DPIP Photoreduction / I50.
T1 construct: gene psbA; native D1 within whole PSII complex (D1/D2 reaction centre) in isolated thylakoid membranes from 4-week-old pea leaves; no tag, not purified further
Format: biochemical
`CC(C)N1C(=O)c2ccccc2NS1(=O)=O` [Bentazon] was tested, and the IC50 was 6.16 µM. In the case of `CN(C)C(=O)Nc1ccc(Cl)c(Cl)c1` [Diuron], the IC50 is reported as 0.0718 µM. With `CSc1nnc(C(C)(C)C)c(=O)n1N` [Metribuzin] the IC50 was 0.156 µM. With `CCNc1nc(Cl)nc(NC(C)(C)C)n1` [Terbuthylazine] the IC50 was 0.11 µM.

From paper PMC8398153, “Binding Properties of Photosynthetic Herbicides with the QB Site of the D1 Protein in Plant Photosystem II: A Combined Functional and Molecular Docking Study” (Plants, 2021)
